Values quoted from earlier work as cited in publication PMC6644309 (ACS Omega, 2018).
≈ marks a conversion by molar mass, not a printed value.

Key:
[1] = in vivo
[2] = not given; remark: listed apart in the source

- bioavailability [1]: 42–58%
- solubility in water (in water): 0.09 µg/mL (≈ 0.175 µM)
- solubility at pH 3–7 (in words) (pH 3–7, physiological pH): practically insoluble
- pKa, benzimidazole (basic) group, first [2]: 4.1
- pKa, benzimidazole (basic) group, second [2]: 6.0
- pKa, carboxylic (acidic) group [2]: 3.5
Compound: CCCc1nc2c(C)cc(-c3nc4ccccc4n3C)cc2n1Cc1ccc(-c2ccccc2C(=O)O)cc1 [TLM, 2-[4-[[4-methyl-6-(1-methylbenzimidazol-2-yl)-2-propylbenzimidazol-1-yl]methyl]phenyl]benzoic acid]
